Data as given in patent US8039514B2, “Sulfonamide compounds and use thereof” (Asahi Kasei Pharma Corporation, priority 2008, dated 2011).

Columns and labels:
[1] = tested on: PTH concentration in blood; format: in vivo; conditions: for death or abnormality of the rat administered with the compounds: 0.1-100 mg/kg intravenous or oral; for PTH concentration in blood after 30 minutes / dose dependence of PTH concentration increase / PTH concentration in blood 5 minutes after the intravenous administration: rat, 0.1-100 mg/kg; for PTH concentration in blood 5 minutes after the intravenous administration: Rat Intact PTH ELISA, versus normal value
Experimental: Compounds of Exp. 3-49, Exp. 3-57, Exp. 3-93, Exp. 3-95, Exp. 3-102, Exp. 3-106, Exp. 8-5, Exp. 10-1 and Exp. 10-25 were chosen as a test compound. Each of them was either dissolved or suspended in physiological saline or distilled water containing 1-20% DMSO, 5% CremophorEL, 10-40% PEG300, etc. and administered intravenously (tail vein or femoral vein) or orally administered to a 7 week to 10 week old male SD-IGS rat (Nippon Charles-River) with dosage of 0.1-100 mg/kg. After that, blood sample was taken from subclavian vein over the time and serum was separated. Concentration of PTH in blood was measured using Rat Intact PTH ELISA Kit (manufactured by Immutopics) to evaluate an activity of increasing PTH concentration in blood. […] Therefore, the safety of these compounds was confirmed again.

[2] = target: T1, human calcium-sensing receptor (CaSR) (Homo sapiens, UniProt P41180); test: intracellular Ca assay, CaSR antagonist activity in HEK293/hCaSR cells; format: cell-based; conditions: Fura2-AM, inhibition of response to calcium chloride ligand solution, read-out: IC50 values according to the intracellular Ca assay (CaSR antagonist activity)
T1 construct: expressed in transfected cells
T1 sequence (P41180 20-1078): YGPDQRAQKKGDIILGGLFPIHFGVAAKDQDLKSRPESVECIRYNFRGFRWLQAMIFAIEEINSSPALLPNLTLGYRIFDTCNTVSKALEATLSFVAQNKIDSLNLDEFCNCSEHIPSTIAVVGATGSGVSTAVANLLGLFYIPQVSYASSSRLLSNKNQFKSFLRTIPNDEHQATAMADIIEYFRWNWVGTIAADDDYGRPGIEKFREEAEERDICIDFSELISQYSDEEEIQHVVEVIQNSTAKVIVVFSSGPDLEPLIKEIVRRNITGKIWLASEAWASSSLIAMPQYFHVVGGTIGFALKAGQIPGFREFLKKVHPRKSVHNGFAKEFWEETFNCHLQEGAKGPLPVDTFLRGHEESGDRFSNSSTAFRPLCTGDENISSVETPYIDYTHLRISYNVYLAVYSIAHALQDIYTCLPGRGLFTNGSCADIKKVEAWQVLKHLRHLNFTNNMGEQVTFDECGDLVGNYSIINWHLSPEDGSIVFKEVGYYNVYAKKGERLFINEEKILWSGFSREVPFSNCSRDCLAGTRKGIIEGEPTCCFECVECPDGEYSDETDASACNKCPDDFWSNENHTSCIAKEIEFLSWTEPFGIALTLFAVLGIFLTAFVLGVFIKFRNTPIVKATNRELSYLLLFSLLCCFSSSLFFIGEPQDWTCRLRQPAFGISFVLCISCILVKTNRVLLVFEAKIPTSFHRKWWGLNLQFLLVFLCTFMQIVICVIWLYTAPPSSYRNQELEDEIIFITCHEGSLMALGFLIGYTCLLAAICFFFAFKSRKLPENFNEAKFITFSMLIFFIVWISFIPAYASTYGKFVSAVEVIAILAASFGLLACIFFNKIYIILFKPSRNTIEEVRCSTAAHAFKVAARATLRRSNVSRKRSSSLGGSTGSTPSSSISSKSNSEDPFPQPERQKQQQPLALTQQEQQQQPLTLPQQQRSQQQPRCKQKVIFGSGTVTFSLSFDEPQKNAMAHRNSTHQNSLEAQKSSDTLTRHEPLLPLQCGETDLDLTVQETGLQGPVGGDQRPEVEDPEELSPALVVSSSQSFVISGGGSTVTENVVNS
Summary of the method: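 HEK293/hCaSR cells were loaded with Fura2-AM and pre-incubated with compound for 160 s at 37° C in HEPES buffer (pH 7.4, 0.8 mM CaCl2), then challenged with calcium ligand solution. Read-out was the peak 340/380 nm fluorescence ratio; inhibition is relative to no-compound (0%) and no-calcium-ligand (100%) controls.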

SMILES | death or abnormality of the rat administered with the compounds [1] | PTH concentration in blood after 30 minutes [1] | dose dependence of PTH concentration increase [1] | PTH concentration in blood 5 minutes after the intravenous administration [1] | IC50 [2] [nM]
CN(C[C@H](O)CNC(C)(C)Cc1ccc(Cl)c(F)c1)S(=O)(=O)c1cc(-c2ccc(CCC(=O)O)cc2)cc(C(F)(F)F)c1 [Exp. 3-95, (R)-3-(3′-(N-(3-(1-(4-chloro-3-fluorophenyl)-2-methylpropan-2-ylamino)-2-hydroxypropyl)-N-methylsulfamoyl)-5′-(trifluoromethyl)biphenyl-4-yl)propionic acid] | no death or abnormality was found | returned to a normal value | dependent on the administration amount of the compound | increased at least twice the normal value | 
CN(C[C@H](O)CNC(C)(C)CC1Cc2ccccc2C1)S(=O)(=O)c1cc(-c2ccc(CCC(=O)O)cc2)cc(C(F)(F)F)c1 [Exp. 3-93, (R)-3-(3′-(N-(3-(1-(2,3-dihydro-1H-inden-2-yl)-2-methylpropan-2-ylamino)-2-hydroxypropyl)-N-methylsulfamoyl)-5′-(trifluoromethyl)biphenyl-4-yl)propionic acid] | no death or abnormality was found | returned to a normal value | dependent on the administration amount of the compound | increased at least twice the normal value | ≤ 300
CN(C[C@H](O)CNC(C)(C)CC1Cc2ccccc2C1)S(=O)(=O)c1cc(CCCC(=O)O)cc(C(F)(F)F)c1 [Exp. 10-25, (R)-4-(3-(N-(3-(1-(2,3-dihydro-1H-inden-2-yl)-2-methylpropan-2-ylamino)-2-hydroxypropyl)-N-methylsulfamoyl)-5-(trifluoromethyl)phenyl)butanoic acid] | no death or abnormality was found | returned to a normal value | dependent on the administration amount of the compound | increased at least twice the normal value | 
CN(C[C@H](O)CNC(C)(C)CC1Cc2ccccc2C1)S(=O)(=O)c1cccc(-c2cccc(C(=O)O)c2)c1 [Exp. 3-49, (R)-3′-(N-(3-(1-(2,3-dihydro-1H-inden-2-yl)-2-methylpropan-2-ylamino)-2-hydroxypropyl)-N-methylsulfamoyl)biphenyl-3-carboxylic acid] | no death or abnormality was found | returned to a normal value | dependent on the administration amount of the compound | increased at least twice the normal value | ≤ 300
CN(C[C@H](O)CNC(C)(C)CC1Cc2ccccc2C1)S(=O)(=O)c1cc(CCC(=O)O)cc(C(F)(F)F)c1 [Exp. 10-1, (R)-3-(3-(N-(3-(1-(2,3-dihydro-1H-inden-2-yl)-2-methylpropan-2-ylamino)-2-hydroxypropyl)-N-methylsulfamoyl)-5-(trifluoromethyl)phenyl)propionic acid] | no death or abnormality was found | returned to a normal value | dependent on the administration amount of the compound | increased at least twice the normal value | 
CCc1cc(-c2ccc(CCC(=O)O)cc2)ccc1S(=O)(=O)N(C)C[C@H](O)CNC(C)(C)CC1Cc2ccccc2C1 [Exp. 3-102, (R)-3-(4′-(N-(3-(1-(2,3-dihydro-1H-inden-2-yl)-2-methylpropan-2-ylamino)-2-hydroxypropyl)-N-methylsulfamoyl)-3′-ethylbiphenyl-4-yl)propionic acid] | no death or abnormality was found | returned to a normal value | dependent on the administration amount of the compound | increased at least twice the normal value | 
CN(C[C@H](O)CNC(C)(C)CC1Cc2ccccc2C1)S(=O)(=O)c1ccc(CCCCCC(=O)O)c(C(F)(F)F)c1 [Exp. 10-14, (R)-6-(4-(N-(3-(1-(2,3-dihydro-1H-inden-2-yl)-2-methylpropan-2-ylamino)-2-hydroxypropyl)-N-methylsulfamoyl)-2-(trifluoromethyl)phenyl)hexanoic acid] |  |  |  |  | ≤ 300
CN(C[C@H](O)CNC(C)(C)CC1Cc2ccccc2C1)S(=O)(=O)c1ccc(-c2cc(CCC(=O)O)ccc2F)cc1C(F)(F)F [Exp. 5-18, (R)-3-(4′-(N-(3-(1-(2,3-dihydro-1H-inden-2-yl)-2-methylpropan-2-ylamino)-2-hydroxypropyl)-N-methylsulfamoyl)-6-fluoro-3′-(trifluoromethyl)biphenyl-3-yl)propionic acid] |  |  |  |  | ≤ 300
Cc1cc(CCC(=O)O)sc1-c1cc(C(F)(F)F)cc(S(=O)(=O)N(C)C[C@H](O)CNC(C)(C)CCCc2ccccc2)c1 [Exp. 6-1, (R)-3-(5-(3-(N-(2-hydroxy-3-(2-methyl-5-phenylpentan-2-ylamino)propyl)-N-methylsulfamoyl)-5-(trifluoromethyl)phenyl)-4-methylthiophen-2-yl)propionic acid] |  |  |  |  | ≤ 300
CN(C[C@H](O)CNC(C)(C)CC1Cc2ccccc2C1)S(=O)(=O)c1ccc(-c2ccc(C(=O)O)nc2)c(C(F)(F)F)c1 [Exp. 3-231, (R)-5-(4-(N-(3-(1-(2,3-dihydro-1H-inden-2-yl)-2-methylpropan-2-ylamino)-2-hydroxypropyl)-N-methylsulfamoyl)-2-(trifluoromethyl)phenyl)picolinic acid] |  |  |  |  | ≤ 300
CN(C[C@H](O)CNC(C)(C)Cc1ccc2ccccc2c1)S(=O)(=O)c1cccc(-c2ccc(C(=O)O)cc2[N+](=O)[O-])c1 [Exp. 3-20, (R)-3′-(N-(2-hydroxy-3-(2-methyl-1-(naphthalen-2-yl)propan-2-ylamino)propyl)-N-methylsulfamoyl)-2-nitrobiphenyl-4-carboxylic acid] |  |  |  |  | 1000 to 3000
CN(C[C@H](O)CNC(C)(C)Cc1ccc2ccccc2c1)S(=O)(=O)c1cccc(-c2ccc(C(=O)O)c(O)c2)c1 [Exp. 3-24, (R)-3-hydroxy-3′-(N-(2-hydroxy-3-(2-methyl-1-(naphthalen-2-yl)propan-2-ylamino)propyl)-N-methylsulfamoyl)biphenyl-4-carboxylic acid] |  |  |  |  | 300 to 1000
CN(C[C@H](O)CNC(C)(C)CC1Cc2ccccc2C1)S(=O)(=O)c1cccc(-c2cc(F)cc(C(=O)O)c2)c1 [Exp. 3-60, (R)-3′-(N-(3-(1-(2,3-dihydro-1H-inden-2-yl)-2-methylpropan-2-ylamino)-2-hydroxypropyl)-N-methylsulfamoyl)-5-fluorobiphenyl-3-carboxylic acid] |  |  |  |  | ≤ 300
CN(C[C@H](O)CNC(C)(C)CC1Cc2ccccc2C1)S(=O)(=O)c1cccc(-c2ccc(C(=O)O)c(Cl)c2)c1 [Exp. 3-54, (R)-3-chloro-3′-(N-(3-(1-(2,3-dihydro-1H-inden-2-yl)-2-methylpropan-2-ylamino)-2-hydroxypropyl)-N-methylsulfamoyl)biphenyl-4-carboxylic acid] |  |  |  |  | ≤ 300
